Experiments:
BCDIN3D [1] = target: T1, BCDIN3D (Homo sapiens, UniProt Q7Z5W3); experiment: BCDIN3D IC50 RFMS (RapidFire) assay with mini-helix; assay type: biochemical; conditions: 25 nM enzyme
T1 sequence (Q7Z5W3 1-292): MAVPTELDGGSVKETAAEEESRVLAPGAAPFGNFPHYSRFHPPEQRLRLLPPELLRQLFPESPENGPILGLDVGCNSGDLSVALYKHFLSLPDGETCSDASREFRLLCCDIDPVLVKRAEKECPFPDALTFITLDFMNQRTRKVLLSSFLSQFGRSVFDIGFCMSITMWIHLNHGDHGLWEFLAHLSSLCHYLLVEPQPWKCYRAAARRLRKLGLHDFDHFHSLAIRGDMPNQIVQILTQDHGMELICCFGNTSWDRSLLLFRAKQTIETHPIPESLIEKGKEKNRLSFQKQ
Protocol: The following General Methods details the assay conditions for the Biological assays.
BCDIN3D IC50 RFMS Assay with Mini-Helix
The enzymatic assay was performed in a 384-well polypropylene plate in assay buffer with 25 mM Tris pH 8.0, 10 mM DTT, 1 mM EDTA, 0.03% BSA in a final assay volume of 20 μL. The enzyme with a final concentration of 25 nM was pre-incubated with the respective compound at 1% DMSO final assay concentration over 10 min at room temperature. The reaction was initiated by addition of 0.2 μM final assay concentration of mini-helix and 6 μM final concentration of SAM as substrates. After a 1 hr incubation at 37° C., the reaction was terminated with 40 μL of stop solution of 7.5% trichloroactetic acid in water containing 112.5 nM D4-SAH and 30 nM ^13C10-SAH used as internal standards. The SAH product concentrations as well as both internal standards were analyzed by a RapidFire High Throughput Mass Spectrometry System (Agilent Technologies, Santa Clara, Calif.) using an AP14000 triple quadrupole mass spectrometer (AB Sciex Framingham, Mass.).

BCDIN3D [2] = target: T1, BCDIN3D; experiment: BCDIN3D InCellPulse thermal stability assay in transfected A549 cells; assay type: cell-based; conditions: heat shock 58° C. 15 min
Protocol: BCDIN3D InCellPulse™ Assay
The thermal stability assay was performed with lipofectamine 3000 transiently transfected A549 using the plasmid pICP-ePL-BCDIN3 Da. This plasmid encodes for BCDIN3D N-terminally fused to a Prolabel (ePL), complementing a split β-Galactosidase Enzyme System InCELL Pulse Technology (InCELL Hunter Detection Kit, DiscoverX/Eurofins, cat: 96-0079L). 20 μl A549 cells (1500 cell/well) were added with a multidrop device to compounds to a final DMSO concentration of 0.6% in 384-well polypropylene plate format in IMDM medium and pre-incubated with the compounds for 1 h at 37° C. and 5% CO2. Subsequently, a heat shock was applied to the entire sealed plate in a 58° C. water bath for 15 min. The plates were cooled to RT, spun down and 25 μl/well of EA Detection Solution at 3.3× (InCELL Hunter Detection Kit) was added per well. 21 μl of the mixture was added to a black 384-well measurement plate (Corning, PS, black, Flat Bottom, #3575), mix for 30 minutes on a plate shaker at RT. Finally, the luminescence was measured with a Perkin Elmer EnVision with 0.2 s measurement time in luminescence mode.

[3] = mini-helix substrate 0.2 μM, SAM 6 μM
[4] = transiently transfected A549 cells

Row | IC50 (BCDIN3D [1]; [3]) | IC50 (BCDIN3D [2]; [4]) | IC50 (BCDIN3D [1]; mini-helix 0.2 μM and SAM 6 μM as substrates, 1 hr at 37° C.) | IC50 (BCDIN3D [2]; A549 cells transiently transfected with ePL-BCDIN3D, 1 h pre-incubation) | SMILES
1 | 0.133 µM | 0.152 µM | – | – | [2H]C([2H])([2H])n1ncc2c(NC(C)(C)C)nc(NC[C@H](N)c3ccccc3)nc21 [Compound 4.55, N6-[(2R)-2-amino-2-phenyl-ethyl]-N4-tert-butyl-1-(trideuteriomethyl)pyrazolo[3,4-d]pyrimidine-4,6-diamine]
2 | 0.128 µM | 0.137 µM | – | – | Cn1ncc2c(NC34CC(C3)C4)nc(NC[C@H](N)c3ccccc3)nc21 [Compound 4.66, N6-[(2R)-2-amino-2-phenyl-ethyl]-N4-(3-bicyclo[1.1.1]pentanyl)-1-methyl-pyrazolo[3,4-d]pyrimidine-4,6-diamine]
3 | 0.54 µM | 1.56 µM | – | – | Cn1ncc2c(NCCC(F)(F)F)nc(NC[C@H](N)c3ccccc3)nc21 [Compound 4.114, N6-[(2R)-2-amino-2-phenyl-ethyl]-1-methyl-N4-(3,3,3-trifluoropropyl)pyrazolo[3,4-d]pyrimidine-4,6-diamine]
4 | 0.262 µM | 1.81 µM | – | – | Cn1ncc2c(Nc3ccc(F)c(Cl)c3)nc(NCC3(N)CC3)nc21 [Compound 2.27, 6-N-[(1-aminocyclopropyl)methyl]-4-N-(3-chloro-4-fluorophenyl)-1-methylpyrazolo[3,4-d]pyrimidine-4,6-diamine]
5 | 0.09 µM | 0.37 µM | – | – | Cn1ncc2c(NC(C)(C)C)nc(NC[C@H](N)c3ccc(C#N)cc3)nc21 [Compound 5.28, 4-[(1R)-1-amino-2-{[4-(tert-butylamino)-1-methyl-1H-pyrazolo[3,4-d]pyrimidin-6-yl]amino}ethyl]benzonitrile]
6 | 0.045 µM | 0.481 µM | – | – | [2H]C([2H])([2H])n1ncc2c(Nc3ccc(C(F)(F)F)cc3)nc(NCC3(N)CCC3)nc21 [Compound 3.24, N6-[(1-aminocyclobutyl)methyl]-1-(trideuteriomethyl)-N4-[4-(trifluoromethyl)phenyl]pyrazolo[3,4-d]pyrimidine-4,6-diamine]
7 | 1.4 µM | 1.2 µM | – | – | Cn1ncc2c(NC(C)(C)CO)nc(NC[C@H](N)c3ccccc3)nc21 [Compound 4.71, 2-[[6-[[(2R)-2-amino-2-phenyl-ethyl]amino]-1-methyl-pyrazolo[3,4-d]pyrimidin-4-yl]amino]-2-methyl-propan-1-ol]
8 | 0.179 µM | 0.252 µM | – | – | C#CCCC1(CCOc2ccc(CNc3nc(NCC4(N)CC4)nc4c3cnn4C)cc2Cl)N=N1 [Compound 2.51, 6-N-[(1-aminocyclopropyl)methyl]-4-N-[[4-[2-(3-but-3-ynyldiazirin-3-yl)ethoxy]-3-chlorophenyl]methyl]-1-methylpyrazolo[3,4-d]pyrimidine-4,6-diamine]
9 | 0.0565 µM | 0.329 µM | – | – | Cn1ncc2c(Nc3ccc(C(F)(F)F)cc3)nc(NCC3(N)CC3)nc21 [Compound 2.44, 6-N-[(1-aminocyclopropyl)methyl]-1-methyl-4-N-[4-(trifluoromethyl)phenyl]pyrazolo[3,4-d]pyrimidine-4,6-diamine]
10 | 0.211 µM | 1.61 µM | – | – | COc1cc(Nc2nc(NCC3(N)CC3)nc3c2cnn3C)ccc1Cl [Compound 2.41, 6-N-[(1-aminocyclopropyl)methyl]-4-N-(4-chloro-3-methoxyphenyl)-1-methylpyrazolo[3,4-d]pyrimidine-4,6-diamine]
11 | – | – | 0.568 µM | 0.754 µM | COc1cccc(-c2ccc(Nc3nc(NCCN)nc4c3cnn4C)cc2)c1 [Compound 1.14, N6-(2-aminoethyl)-N4-{3′-methoxy-[1,1′-biphenyl]-4-yl}-1-methyl-1H-pyrazolo[3,4-d]pyrimidine-4,6-diamine]
12 | 1.97 µM | 3.11 µM | – | – | Cn1ncc2c(NC(C)(C)C)nc(NC[C@@H](N)c3ccccc3)nc21 [Compound 4.54, 6-N-[(2S)-2-amino-2-phenylethyl]-4-N-tert-butyl-1-methylpyrazolo[3,4-d]pyrimidine-4,6-diamine]
13 | 0.0286 µM | 0.0626 µM | – | – | Cn1ncc2c(Nc3ccc(Cl)cc3)nc(NC[C@H](N)c3ccccc3)nc21 [Compound 4.30, N6-[(2R)-2-amino-2-phenyl-ethyl]-N4-(4-chlorophenyl)-1-methyl-pyrazolo[3,4-d]pyrimidine-4,6-diamine]
14 | 0.151 µM | 0.123 µM | – | – | Cn1ncc2c(NC3(C)CCCC3)nc(NC[C@H](N)c3ccccc3)nc21 [Compound 4.116, N6-[(2R)-2-amino-2-phenyl-ethyl]-1-methyl-N4-(1-methylcyclopentyl)pyrazolo[3,4-d]pyrimidine-4,6-diamine]
15 | 0.554 µM | 1.86 µM | – | – | CNc1nc(NCC(N)c2ccccc2)nc2c1cnn2C (stereo not shown) [Compound 4.36, 6-N-(2-amino-2-phenylethyl)-4-N,1-dimethylpyrazolo[3,4-d]pyrimidine-4,6-diamine]
16 | 0.321 µM | 0.457 µM | – | – | Cn1ncc2c(NC(C)(C)C)nc(NC[C@H](N)c3ccccc3Cl)nc21 [Compound 5.11, N6-[(2R)-2-amino-2-(2-chlorophenyl)ethyl]-N4-tert-butyl-1-methyl-pyrazolo[3,4-d]pyrimidine-4,6-diamine]
17 | 0.444 µM | 3 µM | – | – | Cn1ncc2c(Nc3cccc(F)c3)nc(NCC3(N)CC3)nc21 [Compound 2.29, 6-N-[(1-aminocyclopropyl)methyl]-4-N-(3-fluorophenyl)-1-methylpyrazolo[3,4-d]pyrimidine-4,6-diamine]
18 | 0.0894 µM | 0.436 µM | – | – | Cn1ncc2c(Nc3ccc(C(F)(F)F)cc3)nc(NCC(N)c3ccccn3)nc21 (stereo not shown) [Compound 5.03, 6-N-(2-amino-2-pyridin-2-ylethyl)-1-methyl-4-N-[4-(trifluoromethyl)phenyl]pyrazolo[3,4-d]pyrimidine-4,6-diamine]
19 | 0.252 µM | 0.341 µM | – | – | Cn1ncc2c(NCC(C)(F)F)nc(NC[C@H](N)c3ccccc3)nc21 [Compound 4.74, N6-[(2R)-2-amino-2-phenyl-ethyl]-N4-(2,2-difluoropropyl)-1-methyl-pyrazolo[3,4-d]pyrimidine-4,6-diamine]
20 | 0.851 µM | 3.14 µM | – | – | Cn1ncc2c(NC3CCOCC3)nc(NC[C@H](N)c3ccccc3)nc21 [Compound 4.69, N6-[(2R)-2-amino-2-phenyl-ethyl]-1-methyl-N4-tetrahydropyran-4-yl-pyrazolo[3,4-d]pyrimidine-4,6-diamine]
21 | 0.553 µM | 0.672 µM | – | – | Cn1ncc2c(NCC(C)(C)F)nc(NC[C@H](N)c3ccccc3)nc21 [Compound 4.110, N6-[(2R)-2-amino-2-phenyl-ethyl]-N4-(2-fluoro-2-methyl-propyl)-1-methyl-pyrazolo[3,4-d]pyrimidine-4,6-diamine]
22 | 0.217 µM | 0.944 µM | – | – | Cc1ccc(CNc2nc(NCC(N)c3ccccn3)nc3c2cnn3C)cc1Cl (stereo not shown) [Compound 5.02]
23 | 0.0501 µM | 0.178 µM | – | – | Cn1ncc2c(Nc3ccc(C(F)(F)F)cc3)nc(NCC(N)c3ccccc3)nc21 (stereo not shown) [Compound 4.17, 6-N-(2-amino-2-phenylethyl)-1-methyl-4-N-[4-(trifluoromethyl)phenyl]pyrazolo[3,4-d]pyrimidine-4,6-diamine]
24 | 0.527 µM | 0.992 µM | – | – | Cn1ncc2c(NCC(F)(F)F)nc(NCC(N)c3ccccc3)nc21 (stereo not shown) [Compound 4.44, 6-N-(2-amino-2-phenylethyl)-1-methyl-4-N-(2,2,2-trifluoroethyl)pyrazolo[3,4-d]pyrimidine-4,6-diamine]
25 | 0.369 µM | 1.61 µM | – | – | Cn1ncc2c(NCc3ccc(Br)cc3)nc(NCC3(N)CC3)nc21 [Compound 2.13, 6-N-[(1-aminocyclopropyl)methyl]-4-N-[(4-bromophenyl)methyl]-1-methylpyrazolo[3,4-d]pyrimidine-4,6-diamine]
26 | 0.178 µM | 0.505 µM | – | – | COc1ccc(CNc2nc(NCC(N)c3ccccc3)nc3c2cnn3C)c(OC)c1 (stereo not shown) [Compound 4.09, N6-(2-amino-2-phenyl-ethyl)-N4-[(2,4-dimethoxyphenyl)methyl]-1-methyl-pyrazolo[3,4-d]pyrimidine-4,6-diamine]

— patent publication US20220370453A1 (Storm Therapeutics Ltd, priority 2019, published 2022)
